For 2 compounds, IC50 and inhibition results are on record in patent US8133913B2, “Substituted indeno [1,2-b]indole derivatives as novel inhibitors of protein kinase CK2 and their use as tumor therapeutic agents, cytostatics and diagnostic aids” (Heinrich-Heine Universitat Dusseldof, priority 2006, dated 2012).

For experiment [1], the target named is T1, EGF-R (Homo sapiens, UniProt P00533).
T1 construct: made in house; host or cells: Sf9 insect cells, baculovirus
The experiment in a line: Radiometric protein kinase assay (33PanQinase Activity Assay). It is filed as biochemical. The note with it: 1 μM ATP.

Experiment [2] deals with T2, PDGFR-beta (Homo sapiens, UniProt P09619).
T2 construct: made in house; host or cells: Sf9 insect cells, baculovirus
Described as above. The note with it: 1 μM ATP. It is filed as biochemical.

Experiment [3] has as its target T3, human CK2 protein kinase (holoenzyme) (Homo sapiens, UniProt P68400).
T3 construct: made in house; host or cells: E. coli BL21(DE3), pT7-7 or bicistronic pET11d-CK2α, β
Kind of experiment: Inhibition of recombinant human CK2 protein kinase (holoenzyme), radiometric filter assay with peptide […]. In kind it is biochemical.

For experiment [4], the system named is MCF-7. The experiment in a line: Proliferation of tumor cell lines (Bracht et al.). In kind it is cell-based. The note with it: Homo sapiens, MCF7, read-out: IC50 (μM) Mean, inhibition of cell proliferation.
Experiment [5] deals with DAN-G. Kind of experiment: Proliferation of tumor cell lines (Bracht et al.). It is filed as cell-based. The note with it: read-out: IC50 (μM) Mean, inhibition of cell proliferation.
Experiment [6] has as its system LCLC. The experiment in a line: Proliferation of tumor cell lines (Bracht et al.). It is filed as cell-based. The settings on record: read-out: IC50 (μM) Mean, inhibition of cell proliferation.
Experiment [7] concerns A427. Kind of experiment: Proliferation of tumor cell lines (Bracht et al.). In kind it is cell-based. The settings on record: Homo sapiens, A-427, read-out: IC50 (μM) Mean, inhibition of cell proliferation.
Experiment [8] has as its system RT-4. The experiment in a line: Proliferation of tumor cell lines (Bracht et al.). It is filed as cell-based. The settings on record: Homo sapiens, read-out: IC50 (μM) Mean, inhibition of cell proliferation.
Experiment [9] has as its target T4, CK2-alpha1 (catalytic subunit of CK2) (Homo sapiens, UniProt P68400).
T4 construct: made in house; host or cells: Sf9 insect cells, baculovirus
Kind of experiment: Radiometric protein kinase assay (33PanQinase Activity Assay). The note with it: 1 μM ATP, substrate casein. In kind it is biochemical.

T3 sequence (P68400 whole entry): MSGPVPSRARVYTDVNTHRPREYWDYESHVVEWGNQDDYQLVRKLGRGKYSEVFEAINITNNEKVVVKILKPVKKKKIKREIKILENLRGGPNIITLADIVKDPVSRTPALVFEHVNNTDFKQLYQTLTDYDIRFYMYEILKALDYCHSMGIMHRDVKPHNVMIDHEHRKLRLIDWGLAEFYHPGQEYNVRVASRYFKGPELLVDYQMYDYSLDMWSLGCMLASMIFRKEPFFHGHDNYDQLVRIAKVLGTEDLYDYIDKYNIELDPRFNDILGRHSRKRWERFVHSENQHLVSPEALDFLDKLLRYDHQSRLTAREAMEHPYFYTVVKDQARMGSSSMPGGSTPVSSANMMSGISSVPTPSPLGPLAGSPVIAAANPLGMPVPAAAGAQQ
T3 sequence (P67870 whole entry partner): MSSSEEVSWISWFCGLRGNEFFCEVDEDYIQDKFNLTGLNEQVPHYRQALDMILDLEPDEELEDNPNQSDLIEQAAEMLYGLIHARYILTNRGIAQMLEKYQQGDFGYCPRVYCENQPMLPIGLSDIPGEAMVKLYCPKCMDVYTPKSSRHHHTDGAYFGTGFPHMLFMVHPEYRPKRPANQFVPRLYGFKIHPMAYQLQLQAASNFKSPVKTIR
T1 sequence (P00533 25-1210): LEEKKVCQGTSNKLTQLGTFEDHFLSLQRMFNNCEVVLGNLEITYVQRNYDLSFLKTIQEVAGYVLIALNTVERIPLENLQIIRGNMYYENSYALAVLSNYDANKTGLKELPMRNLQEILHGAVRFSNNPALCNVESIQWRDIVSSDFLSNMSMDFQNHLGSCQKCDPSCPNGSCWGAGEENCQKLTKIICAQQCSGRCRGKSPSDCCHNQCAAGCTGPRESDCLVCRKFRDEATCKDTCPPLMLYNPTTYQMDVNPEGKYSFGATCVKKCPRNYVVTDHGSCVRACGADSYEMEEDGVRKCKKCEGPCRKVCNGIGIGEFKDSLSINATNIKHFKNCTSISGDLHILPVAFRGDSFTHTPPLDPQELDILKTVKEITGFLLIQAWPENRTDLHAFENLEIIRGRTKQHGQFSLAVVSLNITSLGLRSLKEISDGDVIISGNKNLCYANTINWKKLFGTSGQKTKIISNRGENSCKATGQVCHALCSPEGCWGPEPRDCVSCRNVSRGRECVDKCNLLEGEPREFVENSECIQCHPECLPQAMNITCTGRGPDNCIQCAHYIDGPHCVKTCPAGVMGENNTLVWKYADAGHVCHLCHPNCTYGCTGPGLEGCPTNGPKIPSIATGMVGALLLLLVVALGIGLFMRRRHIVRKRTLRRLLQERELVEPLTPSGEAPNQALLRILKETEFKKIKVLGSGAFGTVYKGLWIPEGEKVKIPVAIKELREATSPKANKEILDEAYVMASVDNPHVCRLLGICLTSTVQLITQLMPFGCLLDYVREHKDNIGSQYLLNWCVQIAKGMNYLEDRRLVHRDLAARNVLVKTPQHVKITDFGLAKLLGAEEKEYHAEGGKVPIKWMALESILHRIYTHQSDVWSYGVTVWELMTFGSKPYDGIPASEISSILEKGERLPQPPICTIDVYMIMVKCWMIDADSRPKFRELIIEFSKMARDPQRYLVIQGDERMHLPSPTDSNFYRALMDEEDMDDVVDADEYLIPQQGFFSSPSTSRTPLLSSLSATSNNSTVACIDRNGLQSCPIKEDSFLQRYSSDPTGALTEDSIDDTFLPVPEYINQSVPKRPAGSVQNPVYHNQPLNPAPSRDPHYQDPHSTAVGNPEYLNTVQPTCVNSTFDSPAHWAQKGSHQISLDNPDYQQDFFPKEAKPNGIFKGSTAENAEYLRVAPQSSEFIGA
T2 sequence (P09619 33-1106): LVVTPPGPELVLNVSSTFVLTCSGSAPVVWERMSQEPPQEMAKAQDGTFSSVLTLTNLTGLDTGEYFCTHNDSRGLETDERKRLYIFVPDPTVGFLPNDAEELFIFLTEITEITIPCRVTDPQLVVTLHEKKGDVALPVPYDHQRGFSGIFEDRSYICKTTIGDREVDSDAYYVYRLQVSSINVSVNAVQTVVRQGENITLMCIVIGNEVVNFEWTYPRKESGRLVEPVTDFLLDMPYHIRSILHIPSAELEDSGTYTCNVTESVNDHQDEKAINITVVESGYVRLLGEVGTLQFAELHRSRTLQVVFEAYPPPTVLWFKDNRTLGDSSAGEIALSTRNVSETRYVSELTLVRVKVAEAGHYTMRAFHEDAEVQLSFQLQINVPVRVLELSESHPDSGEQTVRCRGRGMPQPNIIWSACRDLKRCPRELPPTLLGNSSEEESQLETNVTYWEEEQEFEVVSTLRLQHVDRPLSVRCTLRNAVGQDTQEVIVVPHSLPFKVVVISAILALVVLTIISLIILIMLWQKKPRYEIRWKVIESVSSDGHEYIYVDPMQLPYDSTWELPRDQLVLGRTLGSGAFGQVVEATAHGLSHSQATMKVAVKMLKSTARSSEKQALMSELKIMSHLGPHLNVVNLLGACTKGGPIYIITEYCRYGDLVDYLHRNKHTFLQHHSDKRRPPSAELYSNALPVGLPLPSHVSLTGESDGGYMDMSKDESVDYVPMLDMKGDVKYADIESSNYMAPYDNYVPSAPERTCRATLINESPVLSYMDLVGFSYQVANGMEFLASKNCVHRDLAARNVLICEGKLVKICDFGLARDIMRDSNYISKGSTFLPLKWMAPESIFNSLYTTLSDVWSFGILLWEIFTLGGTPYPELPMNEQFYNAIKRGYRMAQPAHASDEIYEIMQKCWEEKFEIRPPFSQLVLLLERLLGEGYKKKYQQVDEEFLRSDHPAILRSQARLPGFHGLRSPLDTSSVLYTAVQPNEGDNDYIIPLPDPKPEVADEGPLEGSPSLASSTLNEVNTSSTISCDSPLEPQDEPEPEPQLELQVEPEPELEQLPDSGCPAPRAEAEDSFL
T4 sequence (P68400 whole entry): as the sequence (P68400 whole entry) above

For the compound `CC(C)n1c2c(=O)ccc(=O)c2c2c(=O)c3ccccc3c21` [Compound 6b, 5-Isopropyl-5H-indeno[1,2-b]indole-6,9,10-trione], the IC50 in experiment [1] and in experiment [2] was above 10 µM in each case.
On to `O=c1ccc(=O)c2c1c1c(=O)c3ccccc3c1n2Cc1ccccc1` [Compound 6c, 5-Benzyl 5,6,9,10-tetrahydroindeno[1,2-b]indole-6,9,10-trione], for which the inhibition (as a rule, the drop in the measured response relative to a control, in per cent) at 10 µM in experiment [3] (10 μM compound, DMSO control = 100% CK2 activity, at least three independent experiments) is 60%. Also, the IC50 in [3] (concentration range 30 μM to 0.01 μM, 100 μM ATP in assay buffer) was 1.49 µM; in [4], 3.27 µM; in [5] it was above 20 µM; in [6], 4.14 µM; in [7] it was 3.74 µM; in experiment [8], above 20 µM. The IC50 in [9] was above 10 µM; in experiment [1] it was 2.5 µM; in experiment [2], above 10 µM.
